Test results reported in PMC8865919, “Penicillin Binding Proteins and β-Lactamases of Mycobacterium tuberculosis: Reexamination of the Historical Paradigm” (mSphere, 2022).

How the values were obtained:
Assay in all cases: BOCILLIN FL fluorescence inhibition, SDS-PAGE
Format in all cases: binding
Conditions in all cases: read-out: FIC50
[1] = target: PbpA (Rv0016c) (Mycobacterium tuberculosis, UniProt P9WKD1)
Text: BOCILLIN FL fluorescence inhibition, SDS-PAGE on PbpA (Rv0016c)

[2] = target: PonA2 (Rv3682) (Mycobacterium tuberculosis, UniProt I6YGX2)
Text: BOCILLIN FL fluorescence inhibition, SDS-PAGE on PonA2 (Rv3682)

[3] = target: DacB2 (Rv2911) (Mycobacterium tuberculosis, UniProt I6Y204)
Text: BOCILLIN FL fluorescence inhibition, SDS-PAGE on DacB2 (Rv2911)

[4] = target: DacB1 (Rv3330) (Mycobacterium tuberculosis, UniProt O53380)
Text: BOCILLIN FL fluorescence inhibition, SDS-PAGE on DacB1 (Rv3330)

[5] = target: PbpB (Rv2163c) (Mycobacterium tuberculosis, UniProt L0T911)
Text: BOCILLIN FL fluorescence inhibition, SDS-PAGE on PbpB (Rv2163c)

[6] = target: DacB (Rv3627c) (Mycobacterium tuberculosis, UniProt O06380)
Text: BOCILLIN FL fluorescence inhibition, SDS-PAGE on DacB (Rv3627c)

[7] = target: Rv1730c (Mycobacterium tuberculosis, UniProt P71988)
Text: BOCILLIN FL fluorescence inhibition, SDS-PAGE on Rv1730c

[8] = target: PonA1 (Rv0050) (Mycobacterium tuberculosis, UniProt P71707)
Text: BOCILLIN FL fluorescence inhibition, SDS-PAGE on PonA1 (Rv0050)

Sequence of DacB1 (Rv3330) (O53380 33-374): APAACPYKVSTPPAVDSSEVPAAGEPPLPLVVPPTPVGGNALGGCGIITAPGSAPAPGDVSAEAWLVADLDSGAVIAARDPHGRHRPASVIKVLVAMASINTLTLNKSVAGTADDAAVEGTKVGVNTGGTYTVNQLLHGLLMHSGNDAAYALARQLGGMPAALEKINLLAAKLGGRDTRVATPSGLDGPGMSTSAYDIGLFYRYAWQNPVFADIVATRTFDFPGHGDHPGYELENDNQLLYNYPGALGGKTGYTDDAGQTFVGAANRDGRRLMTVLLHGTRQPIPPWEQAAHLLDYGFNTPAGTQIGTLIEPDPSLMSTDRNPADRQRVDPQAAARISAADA
Sequence of Rv1730c (P71988 entry or part of it): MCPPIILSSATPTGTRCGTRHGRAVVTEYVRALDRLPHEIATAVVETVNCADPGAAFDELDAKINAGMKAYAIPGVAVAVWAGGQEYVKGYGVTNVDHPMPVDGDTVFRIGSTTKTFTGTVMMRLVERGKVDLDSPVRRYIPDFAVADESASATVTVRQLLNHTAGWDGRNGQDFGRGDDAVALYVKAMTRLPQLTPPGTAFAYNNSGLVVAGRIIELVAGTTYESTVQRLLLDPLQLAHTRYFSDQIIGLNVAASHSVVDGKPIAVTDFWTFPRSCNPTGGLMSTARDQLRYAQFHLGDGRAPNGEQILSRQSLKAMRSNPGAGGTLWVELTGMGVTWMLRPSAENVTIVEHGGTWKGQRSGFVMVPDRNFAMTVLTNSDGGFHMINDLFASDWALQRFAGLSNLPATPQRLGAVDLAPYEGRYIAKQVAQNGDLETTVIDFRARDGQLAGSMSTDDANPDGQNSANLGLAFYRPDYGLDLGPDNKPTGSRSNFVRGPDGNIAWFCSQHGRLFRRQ
Sequence of DacB (Rv3627c) (O06380 35-461): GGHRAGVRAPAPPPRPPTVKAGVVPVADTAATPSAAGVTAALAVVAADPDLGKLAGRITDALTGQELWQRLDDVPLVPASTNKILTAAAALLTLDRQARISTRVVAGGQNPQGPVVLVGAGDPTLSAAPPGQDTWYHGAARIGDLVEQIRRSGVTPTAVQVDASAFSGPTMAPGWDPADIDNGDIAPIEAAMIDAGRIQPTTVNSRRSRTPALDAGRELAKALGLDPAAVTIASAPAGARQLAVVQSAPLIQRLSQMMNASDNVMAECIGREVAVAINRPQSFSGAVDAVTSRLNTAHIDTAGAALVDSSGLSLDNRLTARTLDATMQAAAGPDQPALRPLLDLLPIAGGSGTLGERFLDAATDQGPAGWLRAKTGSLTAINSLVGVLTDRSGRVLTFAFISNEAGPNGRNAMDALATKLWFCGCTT
Sequence of PbpB (Rv2163c) (L0T911 112-679): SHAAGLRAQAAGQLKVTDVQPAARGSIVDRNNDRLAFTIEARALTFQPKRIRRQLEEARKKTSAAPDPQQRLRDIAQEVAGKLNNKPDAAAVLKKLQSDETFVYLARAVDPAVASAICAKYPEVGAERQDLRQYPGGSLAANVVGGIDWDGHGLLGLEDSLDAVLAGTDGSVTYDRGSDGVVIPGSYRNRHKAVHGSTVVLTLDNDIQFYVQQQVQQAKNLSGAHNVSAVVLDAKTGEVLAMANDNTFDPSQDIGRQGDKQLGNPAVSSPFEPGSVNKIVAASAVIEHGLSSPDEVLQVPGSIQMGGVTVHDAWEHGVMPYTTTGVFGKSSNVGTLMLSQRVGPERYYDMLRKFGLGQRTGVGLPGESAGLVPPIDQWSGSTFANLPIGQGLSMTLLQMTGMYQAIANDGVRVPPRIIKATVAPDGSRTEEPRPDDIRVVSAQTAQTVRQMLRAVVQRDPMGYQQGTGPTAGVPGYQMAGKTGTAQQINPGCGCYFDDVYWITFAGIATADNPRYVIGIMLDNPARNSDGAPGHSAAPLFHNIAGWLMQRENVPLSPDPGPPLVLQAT
Sequence of PbpA (Rv0016c) (P9WKD1 29-491): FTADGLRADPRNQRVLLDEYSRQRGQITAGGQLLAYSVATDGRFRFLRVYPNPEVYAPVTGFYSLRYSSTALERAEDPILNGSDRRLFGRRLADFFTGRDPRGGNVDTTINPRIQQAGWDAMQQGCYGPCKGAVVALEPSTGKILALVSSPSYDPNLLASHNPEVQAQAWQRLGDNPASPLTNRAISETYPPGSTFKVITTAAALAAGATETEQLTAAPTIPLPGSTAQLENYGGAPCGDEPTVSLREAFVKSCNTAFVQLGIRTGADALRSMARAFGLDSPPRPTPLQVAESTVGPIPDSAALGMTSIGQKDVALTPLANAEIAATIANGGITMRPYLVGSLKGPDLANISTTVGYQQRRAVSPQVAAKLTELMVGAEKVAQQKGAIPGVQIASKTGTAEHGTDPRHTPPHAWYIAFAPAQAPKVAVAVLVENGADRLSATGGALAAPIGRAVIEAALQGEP
Sequence of PonA1 (Rv0050) (P71707 160-820): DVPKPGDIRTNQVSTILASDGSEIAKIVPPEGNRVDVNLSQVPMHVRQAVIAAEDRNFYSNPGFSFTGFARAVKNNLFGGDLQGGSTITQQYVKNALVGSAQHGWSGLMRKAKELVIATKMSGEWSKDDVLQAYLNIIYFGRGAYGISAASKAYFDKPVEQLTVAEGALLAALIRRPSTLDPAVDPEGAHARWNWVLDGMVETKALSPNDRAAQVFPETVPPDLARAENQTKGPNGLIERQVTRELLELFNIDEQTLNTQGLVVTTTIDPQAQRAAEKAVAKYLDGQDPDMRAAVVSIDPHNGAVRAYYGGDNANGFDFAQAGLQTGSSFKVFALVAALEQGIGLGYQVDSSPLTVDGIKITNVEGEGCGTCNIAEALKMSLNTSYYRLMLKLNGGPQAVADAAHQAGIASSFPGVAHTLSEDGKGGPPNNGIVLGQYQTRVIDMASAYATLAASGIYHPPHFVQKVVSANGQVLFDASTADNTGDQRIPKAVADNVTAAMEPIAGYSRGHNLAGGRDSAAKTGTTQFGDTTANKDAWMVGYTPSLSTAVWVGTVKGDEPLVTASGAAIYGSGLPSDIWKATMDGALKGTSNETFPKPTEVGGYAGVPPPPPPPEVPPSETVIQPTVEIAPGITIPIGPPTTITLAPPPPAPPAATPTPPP
Sequence of DacB2 (Rv2911) (I6Y204 23-291): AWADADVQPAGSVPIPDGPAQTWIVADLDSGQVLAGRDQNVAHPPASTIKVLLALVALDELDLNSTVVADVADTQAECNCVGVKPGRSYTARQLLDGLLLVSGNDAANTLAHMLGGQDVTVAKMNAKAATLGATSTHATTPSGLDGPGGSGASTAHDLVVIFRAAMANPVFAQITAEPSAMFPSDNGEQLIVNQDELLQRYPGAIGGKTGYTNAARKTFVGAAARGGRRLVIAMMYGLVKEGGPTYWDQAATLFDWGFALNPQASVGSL
Sequence of PonA2 (Rv3682) (I6YGX2 entry or part of it): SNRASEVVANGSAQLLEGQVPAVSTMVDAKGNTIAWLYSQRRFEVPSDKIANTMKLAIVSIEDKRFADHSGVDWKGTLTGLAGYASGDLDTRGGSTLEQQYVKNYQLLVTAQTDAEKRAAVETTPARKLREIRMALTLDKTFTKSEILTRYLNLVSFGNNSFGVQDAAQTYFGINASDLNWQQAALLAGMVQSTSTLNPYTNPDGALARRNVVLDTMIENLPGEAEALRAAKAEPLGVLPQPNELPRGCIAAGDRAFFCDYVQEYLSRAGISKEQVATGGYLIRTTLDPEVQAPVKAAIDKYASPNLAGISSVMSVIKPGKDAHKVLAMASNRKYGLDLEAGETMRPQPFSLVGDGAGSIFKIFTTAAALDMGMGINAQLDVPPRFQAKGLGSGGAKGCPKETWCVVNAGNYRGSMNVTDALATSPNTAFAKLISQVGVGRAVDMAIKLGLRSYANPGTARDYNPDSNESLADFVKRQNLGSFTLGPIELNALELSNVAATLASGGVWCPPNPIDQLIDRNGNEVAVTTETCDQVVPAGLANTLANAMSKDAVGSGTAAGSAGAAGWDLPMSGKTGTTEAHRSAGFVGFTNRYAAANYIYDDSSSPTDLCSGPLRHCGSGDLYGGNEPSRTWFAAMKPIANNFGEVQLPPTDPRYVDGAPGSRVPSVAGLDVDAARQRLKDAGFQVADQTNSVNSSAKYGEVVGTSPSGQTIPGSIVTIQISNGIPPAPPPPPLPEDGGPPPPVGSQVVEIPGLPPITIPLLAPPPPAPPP

In the case of `COc1cccc(OC)c1C(=O)N[C@@H]1C(=O)N2[C@@H]1SC(C)(C)[C@@H]2C(=O)O` [Methicillin], the IC50 [1] is reported as 11.6 ± 2.6 µM.
Compound `C[C@@H](O)[C@H]1C(=O)N2C(C(=O)O)=C(SCCN=CN)C[C@H]12` [Imipenem] has an IC50 [2] of 3 ± 0.6 µM, an IC50 [3] of 11.1 ± 3.2 µM and an IC50 [4] of 4.5 ± 1.4 µM.
With `C=CC1=C(C(=O)O)N2C(=O)[C@@H](NC(=O)/C(=N\O)c3csc(N)n3)[C@H]2SC1` [Cefdinir] the IC50 [1] was 13.8 ± 6.9 µM.
Work on `C[C@@H](O)[C@H]1C(=O)N2C(C(=O)O)=C(S[C@@H]3CN[C@H](C(=O)N(C)C)C3)[C@H](C)[C@H]12` [Meropenem] yielded an IC50 [5] of 4.1 ± 0.2 µM, an IC50 [6] of 1.5 ± 0.2 µM and an IC50 [7] of 838 ± 103 µM.
With `C[C@@H](O)[C@H]1C(=O)N2C(C(=O)O)=C([C@H]3CCCO3)S[C@H]12` [Faropenem] the IC50 [8] was 27.9 ± 3.5 µM and the IC50 [7] was 89.8 ± 12.3 µM.
In the case of `CC1(C)S[C@@H]2[C@H](NC(=O)[C@H](N)c3ccccc3)C(=O)N2[C@H]1C(=O)O` [Ampicillin], the IC50 [5] is reported as 1.5 ± 0.4 µM.
With `CO[C@@]1(NC(=O)Cc2cccs2)C(=O)N2C(C(=O)O)=C(COC(N)=O)CS[C@@H]21` [Cefoxitin] the IC50 [8] was 25.1 ± 2.5 µM, the IC50 [3] was 8.1 ± 2.4 µM and the IC50 [4] was 15.6 ± 1.2 µM.
`C[C@@H](O)[C@H]1C(=O)N2C(C(=O)[O-])=C(SC3Cn4cnc[n+]4C3)[C@H](C)[C@H]12` (some centres unmarked) [Biapenem] was tested, and the IC50 [6] was 3.5 ± 0.2 µM, the IC50 [4] was 18.1 ± 3 µM and the IC50 [7] was 569 ± 72.1 µM.
